# Laboratory results published in US20020062088A1, “System and method for statistical analysis of QT interval as a function of changes in RR interval” (priority 2000, published 2002).
# Like-named read-outs stand apart in the source and are kept apart here.
# How the values were obtained:
# [1] = system: conscious mongrel dog; details: in vivo
# Excerpt: A system for recording electrocardiogram data in accordance with the present invention is broadly shown in FIG. 6 as reference numeral 100. […] The vehicle or test compound may be administered in various ways, including but not limited to orally, intravenously, or subcutaneous.
# Heart rate (RR interval) and Lead II ECG data are collected continuously on a beat-to-beat basis at a sampling rate of 1000 Hz to allow for millisecond (ms) resolution. Using the sampled data, the QT interval and preceding RR interval are measured on individual cardiac cycles using commercially available data acquisition and analysis software. The software package used in support of the data presented here was from Gould Inc. (Po-Ne-Mah) subsidiary. This software permits visual validation of the determination of end points used in the calculation of the ECG time intervals. The collection of data is not limited to any particular method. For example, ECG time intervals can be measured using a ECG strip chart recorder. Thus, both manual and electrical data collection is possible with the present invention.
# The various treatments with vehicle or compounds are studied in a randomized fashion.
# Approximately 250 to 300 consecutive cardiac cycles are analyzed for a pre-dose period and during steady-state compound exposure. This encompasses between three to five minutes of continuous data for each data collection period. […] An asymptotic decaying exponential growth curve fit is used to describe the relationship between QT and RR interval:
# QT=A−B*exp(−C*RR/1000) (1)
# Equation (1) is used to fit the QT measurements to the preceding RR interval for each separate data set of consecutive cardiac cycles. The data from each sample period for each vehicle or compound dose is fit to the equation using a least squares nonlinear regression method such as, but not limited to, Quasi Gauss-Newton.
# The upper 95% confidence limit for the difference of the curves is determined for each of the dose-to-pre-dose comparisons. If the dose curve crosses the 95% limit, the QT and RR values and the direction of crossing is noted.
# The analysis of the compound versus vehicle effect on QT is also accomplished by comparisons of the number of prolonged points exceeding the 95% confidence interval of their respective pre-dose curves. The pre-dose curve value represents the least squares estimate of QT at that value of RR. The 95% limits are then used to compare the overall effect of the treatment (compound or vehicle) to that of the pre-dose response. The confidence limits of the two curves are combined (pooled) to determine the standard error of the difference between the pre-dose and post-dose curves. […] The extent of the confidence and prediction limits depends on the overall variability of the data and the values of the coefficients.
# The number of pre-dose data that exceed the upper 95% prediction limit (referred to herein as “outliers”) is compared to the number of post-dose data that exceed the limit for each of the time periods. A repeated measures test for significant difference between pre-dose and post-dose outliers is conducted to evaluate an effect. In the case of small but consistent effects, the repeated measures test detects significant differences better than individual tests. […] To minimize the chance of false negatives, β, conventionally known as “Type II errors,” no multiple comparison adjustments are made for the individual tests.
# Once the outliers are identified, they are compared to the pre-dose curve to estimate the magnitude of prolongation, ΔQT, above the QT-RR curve fit to the pre-dose data. The magnitude of prolongation is referenced to the curve rather than the upper 95% confidence bound because the curve is the best estimate of the QT-RR functional relationship, regardless of the number of data points.
# [2] = system: humans; details: cited from earlier work
Compound,number and magnitude of the outliers compared to the pre-dose and vehicle response [1],"QTc, clinically ([2]; human, in vivo)",QT prolongation and sudden death in humans [2],Treatment crosses pre-dose curve [1],post-dose curve versus pre-dose curve [1],#outliers/total (QT exceeding 95% confidence bounds of pre-dose curve) ([1]; mongrel),RR at crossing point of post-dose and pre-dose curves ([1]; mongrel) [ms],mean ΔQT (of QT exceeding 95% confidence bounds of pre-dose curve) ([1]; mongrel),ΔQT range (of QT exceeding 95% confidence bounds of pre-dose curve) ([1]; mongrel),"QTRR1000 (least squares estimate of QT at RR 1000 ms, mean ± SEM from curve fit) ([1]; mongrel, iv)","QTc, clinically ([2]; clinical)"
CC(C)(C)c1ccc(C(O)CCCN2CCC(C(O)(c3ccccc3)c3ccccc3)CC2)cc1 (stereo not shown) [terfenadine],significant increase,"clear, dose-dependent increase in QTC",,,,,,,,,
CC(C)NCC(O)c1ccc(NS(C)(=O)=O)cc1 (stereo not shown) [sotalol],,,caused QT prolongation and sudden death,,,,,,,,
COc1cc(N)c(Cl)cc1C(=O)NC1CCN(CCCOc2ccc(F)cc2)CC1OC (stereo not shown) [cisapride],significant increase,,caused QT prolongation and sudden death,Yes:RR =,not significantly greater than the pre-dose curve,130/324,1094,12,5 - 47,240 ± 18,"clear, dose-dependent increase in QTC"
